The values below are quoted from earlier work in patent US20010036664A1, “L-leucyl-L-leucine methyl ester treatment of donor lypmhocyte infusions in bone marrow transplant patients” (priority 2000, published 2001).

For one data set, the system named is GVHD. To be noted: ex vivo treatment of bone marrow grafts; multiple murine models.
The next data set has as its system GVHD-inducing T cells. The note with it: stem cell toxicity occurs at this concentration.

For the compound `COC(=O)[C@H](CC(C)C)NC(=O)[C@@H](N)CC(C)C` [LLME, L-leucyl-L-leucine methyl ester], the “prevention of GVHD” value with GVHD was “completely prevent GVHD”. The “concentrations necessary to purge GVHD-inducing T cells” value in the data set on GVHD-inducing T cells is 500 µM.
